Measured values taken from US20070054868A1, “Synergistic polyphenol compounds, compositions thereof, and uses thereof” (The Trustees of Columbia University in the City of New York, priority 2005, published 2007).
Entries after “also recorded” stand apart in the source; their conditions may differ.

Assays:
SW837 = assay: Growth inhibition IC50 against colorectal cell lines; format: cell-based, human
Text: Cell lines and cell culture. The Caco2, HCT116, HT29, SW480, and SW837 human colorectal cancer cell lines and the FHC normal human fetal colon cell line were obtained from American Type Culture Collection (Manassas, Va.). All cell lines were maintained in DF10 medium containing DMEM (Invitrogen, San Diego, Calif.) supplemented with 10% fetal bovine serum (Invitrogen). The FHC cell line was originally established from the colon of a human fetus at 13 weeks of gestation and has an epithelial morphology. Cells were cultured in an incubator with humidified air at 37° C. with 5% CO2. As an untreated solvent control, cells were treated with DMSO (Sigma Chemical Co., St. Louis, Mo.) at a final concentration of <0.1%. […] Cells to be tested against were plated onto 96-well plates (3×10^3 cells/well) and twenty-four hours later, the cells were treated with an illustrative Synergistic Polyphenol Composition, or one or more illustrative Synergistic Polyphenol Compounds. Neither the medium nor the test compounds were changed during this time period. The assay was done in triplicate. […] The medium and test compounds were not changed during this time period. As a control, the cells were treated with 0.1% DMSO. […] The numbers of cells in replica plates were then determined using a Coulter Counter (Beckman Coulter Co., Fullerton, Calif.) as described in Shimizu et al., Clin. Cancer Res. 2004: 10:1130-40.

COX-2 mRNA = assay: Semiquantitative RT-PCR analysis in SW837 cells; format: cell-based, human; conditions: 20 μg/mL
Description: RNA extraction and semiquantitative RT-PCR analysis were performed using the methods described in Suzui, et al., Cancer Res., 62:3997-4006 (2002). Total RNA was isolated from SW837 human colon cancer cells using Trizol reagent (Invitrogen) according to the manufacturer's instructions. cDNA was amplified from 1 μg of total RNA using SuperScript one-step RT-PCR with the platinum Taq system (Invitrogen). PCR was conducted for 25 cycles in a thermal controller (Programmable Thermal Controller; MJ Research Inc., Watertown, Mass.). The COX-2 specific primer sets […]-2 ([NT]) and […]-2 ([NT]) were designed using the sequence described in Hla et al., Proc. Natl. Acad. Sci. USA, 89:7384-7388 […]. Actin specific primer sets and the amplification cycle conditions were as described in Suzui, et al., Cancer Res., 62:3997-4006 (2002). The intensities of mRNA bands were quantified using NIH Image software version 1.62.

[1] = system: SW837 human colon cancer cells; assay: Cell proliferation assay (Coulter Counter); format: cell-based; conditions: 1.0 μg/mL, 96 hours
Description: Thirty thousand SW837 human colon cancer cells were seeded into multiple 35-mm diameter dishes in DFI0 medium, and 24 hours later the cells were treated with EGCG (0, 1.0, or 20 μg/mL) for 96 hours, during which time, the medium and drugs were not changed. As a control, the cells were treated with 0.1% DMSO. Every 24 hours, and for a total time of 96 hours, replicate plates of cells were washed with PBS and the attached cells were collected by trypsinization. The numbers of cells in replica plates were then counted using a Coulter Counter (Beckman Coulter Co., Fullerton, Calif.) as described in Shimizu et al., Clin. Cancer Res., 10:1130-1140 (2004).

IGF-1R proteins = assay: Western blot analysis for IGF in SW837 cells, total receptor; format: cell-based, human; conditions: 20 μg/mL, during the time course
Text: Total cellular protein was extracted and equivalent amounts of protein were examined by western blot analysis, as described above in Example 6. Cell lysates were separated by SDS-PAGE using 7.5 to 15% polyacrylamide gels and transferred onto Immobilon-P transfer membranes (Millipore Co., Bedford, Mass.). The primary antibodies for IGF-1R[…](#3022) and p-IGF-1R (#3021) were purchased from Cell Signaling Technology (Beverly, Mass.). The primary antibodies for IGF-1R[…](sc-713) and IGFBP-3 (sc-6003) were purchased from Santa Cruz Biotechnology (Santa Cruz, Calif.). The primary antibodies for IGF-1 (clone Sm1.2) and actin (A2066) were purchased from Upstate Cell Signaling Solutions (Charlottesville, Va.) and Sigma Chemical Co. (St Louis, Mo.), respectively. An antibody to actin was used as a loading control. Anti-mouse IgG (Amersham Pharmacia Biosciences, Piscataway, N.J.), anti-rabbit IgG (Amersham Pharmacia Biosciences), or anti-goat IgG (Santa Cruz Biotechnology) antibodies were used as the secondary antibodies. Each membrane was developed using an ECL-enhanced chemiluminescence system (Amersham Biosciences).

IGF-1 = assay: Production of growth factors in HepG2 cells; format: cell-based, human; conditions: 20 μg/mL, listed as EGCG
Description: (§1) The cells were treated with […] EGCG at 0, 3, 6, 12, 24 and 48 hours, and cell extracts were examined by Western blot analysis using the respective antibodies, or were examined by semiquantitative RT-PCR analysis using IGFBP-3 or IGF-1 specific primers.
(§2) Using the MTT cell proliferation assay described in Example 21, and substituting HepG2 human liver cancer cells in place of SW837 cells, the effects of EGCG (20 μg/mL), an illustrative Synergistic Polyphenol Compound, on the production of IGF-1, IGF-2 and IGFBP-3 was determined. […] Accordingly, the Synergistic Polyphenol Compounds are useful for treating or preventing liver cancer.

IGF-2 = assay: Production of growth factors in HepG2 cells; format: cell-based, human; conditions: 20 μg/mL, listed as EGCG
Description: as §1, §2

IGFBP-3 = assay: Production of IGFBP-3 in HepG2 cells; format: cell-based, human; conditions: 20 μg/mL
Description: as §1, §2

[2] = system: HT29 human colon cancer cells; assay: DilC16-labelled plasma membrane, extraction using cold Triton X-100; format: cell-based
Description: HT29 human colon cancer cells were treated with the fluorescent lipid analog DilC16, which preferentially incorporates into ordered domains in the plasma membrane.

EGFR = molecular target: T1, EGFR (Homo sapiens, UniProt P00533); assay: Binding of Alexa 488-labeled EGF to the cell surface receptor; conditions: HT29 cells pre-treated with test substance
T1 construct: endogenous in cells; host or cells: HT29 colon cancer cells
Description: These effects were detected with as little as […] of EGCG, and within 5 minutes. Phosphorylation of EGFR, ERK1, ERK2, and AKT were suppressed in cells treated with methyl-β-cyclodextrin, which depletes plasma membrane cholesterol. […] In addition, the inhibitory effect of EGCG on phosphorylation of EGFR was not blocked by the addition of cholesterol on the growth medium. These findings provide evidence that EGCG can alter membrane domain organization in colon cancer cells ant that this is not due to cholesterol depletion. It was noted that pre-treatment of the cells with EGCG or Poly E inhibited the binding of Alexa 488-labeled EGF to the cell surface receptor EGFR.

[3] = HT29, Triton X-100 sensitivity and DilC16 incorporation

## (−)-epigallocatechin gallate
SW837
  IC50: 19.6 µg/mL
  IC50 concentration determined by MTT assays: 20 µg/mL
COX-2 mRNA; at 48 hours
  cellular level of the COX-2 mRNA: marked decrease
COX-2 mRNA; beginning at about 6 hours
  cellular level of the COX-2 mRNA: progressive decrease
[1]
  inhibition of growth: about 55%
IGF-1R proteins
  levels of the IGF-1R proteins (total): no significant changes
IGF-1
  production of IGF-1: inhibited production; also recorded: decreased the production
IGF-2
  production of IGF-2: inhibited production; also recorded: decreased the production
IGFBP-3
  production of IGFBP-3: increased the production
[2]; [3]
  lowest concentration at which the membrane effects were detected: 2 mg/mL
  time within which the membrane effects were detected: ≤ 5 min
[2]; HT29 pretreated with DilC16
  sensitivity of the plasma membrane to extraction using cold Triton X-100: marked increase
EGFR
  binding of Alexa 488-labeled EGF to the cell surface receptor EGFR: inhibited
